Measured values: PubChem BioAssay (NCI)
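Five concentrations, 48 hours, 96-well plates. Definition used: TGI = concentration required for complete inhibition of growth.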

Experiments:
Assay in all cases: NCI-60 cell line screen, 48 h
786-0 renal = system: 786-0 renal
A549 NSCLC = system: A549 NSCLC
BT-549 breast = system: BT-549 breast
CAKI-1 renal = system: CAKI-1 renal
COLO 205 colon = system: COLO 205 colon
DU-145 prostate = system: DU-145 prostate
HCT-15 colon = system: HCT-15 colon
HT29 colon = system: HT29 colon
LOX IMVI melanoma = system: LOX IMVI melanoma
MCF7 breast = system: MCF7 breast
MDA-MB-435 = system: MDA-MB-435
MDA-N = system: MDA-N
MOLT-4 leukemia = system: MOLT-4 leukemia
NCI/ADR-RES ovarian = system: NCI/ADR-RES ovarian
OVCAR-5 ovarian = system: OVCAR-5 ovarian
SF-539 CNS = system: SF-539 CNS
SK-MEL-2 melanoma = system: SK-MEL-2 melanoma
SK-MEL-5 melanoma = system: SK-MEL-5 melanoma
SR leukemia = system: SR leukemia
TK-10 renal = system: TK-10 renal

SMILES | TGI (786-0 renal) [µM] | TGI (A549 NSCLC) [µM] | TGI (BT-549 breast) [µM] | TGI (CAKI-1 renal) [µM] | TGI (COLO 205 colon) [µM] | TGI (DU-145 prostate) [µM] | TGI (HCT-15 colon) [µM] | TGI (HT29 colon) [µM] | TGI (LOX IMVI melanoma) [µM] | TGI (MCF7 breast) [µM] | TGI (MDA-MB-435) [µM] | TGI (MDA-N) [µM] | TGI (MOLT-4 leukemia) [µM] | TGI (NCI/ADR-RES ovarian) [µM] | TGI (OVCAR-5 ovarian) [µM] | TGI (SF-539 CNS) [µM] | TGI (SK-MEL-2 melanoma) [µM] | TGI (SK-MEL-5 melanoma) [µM] | TGI (SR leukemia) [µM] | TGI (TK-10 renal) [µM]
Cc1nn(C(=O)c2ccc(Cl)cc2)c2c1C(/C=C/c1ccccc1)SC(N)=N2 (stereo not given) | > 10 | > 10 | > 10 | > 10 | > 10 | > 10 | > 10 | > 10 | > 10 | > 10 | > 10 | > 10 | > 10 | > 10 | > 10 | > 10 | > 10 | > 10 | > 10 | > 10
Cc1cc(C)c(C[C@H]2COC(=O)[C@]2(O)Cc2c(C)cc(C)cc2C)c(C)c1 | 38.5 | 34 | 35.2 | 34.6 | 40.3 | 31.9 | 36.2 | > 100 | 36.1 | 34 | 37 | 44.4 | > 100 | 39.1 | 35.9 | 74.4 | 40.2 | 39.6 | > 100 | 37.6
S=C1SSC2N=CC=CC12 (stereo not given) | > 100 | > 100 | > 100 | 34.3 | > 100 | > 100 | > 100 | > 100 | > 100 | > 100 | 31.8 | > 100 | > 100 | > 100 | > 100 | > 100 | > 100 | > 100 | > 100 | > 100
CCC(C)C1NC(=O)C(NC(=O)c2c3[nH]c4c(C(=O)NC5C(=O)NC(C(C)CC)C(=O)N6CCCC6C(=O)N(C)CC(=O)N(C)C(C(C)C)C(=O)OC5C)ccc(C)c4oc-3c(C)c(=O)c2=O)C(C)OC(=O)C(C(C)C)N(C)C(=O)CN(C)C(=O)C2CCCN2C1=O (stereo not given) | > 79.9 | > 100 | > 72.4 | > 91.2 | 13.4 | > 78 | > 100 | 29.2 | > 53.4 | > 33 | > 71.6 | 33 | > 39.8 | > 100 | > 100 | 37.4 | 17.2 | > 100 | 4 | 98.4
CCCCCCOc1ccc(Nc2c(O)c3c(c(O)c2Cl)C(=O)C=CC3=O)cc1 | > 7.32 | > 10 | > 6.01 | > 10 | 4.15 | > 10 | 3.68 | > 7.46 | 3.61 | > 4.88 | 3.9 | > 6.89 | > 6.98 | 6.54 | > 10 | > 6.06 | 7.05 | 3.02 | 5.33 | > 10
O=C1NC(=O)C(c2c[nH]c3ccccc23)=C1c1cn(C(c2ccccc2)(c2ccccc2)c2ccccc2)cn1 | 22.3 | 12.8 | 27.2 | > 100 | 15 | 63.5 | 14.9 | 13.3 | 22.2 | 17.7 | 12.9 | 17.9 | 7.39 | 22 | 23.1 | 35.8 | 25.6 | 20.8 | 6.78 | 36.5
O=C(/N=C/c1c(O)c2ccccc2oc1=O)Oc1ccccc1 | 85.7 | > 100 | 81 | 94.6 | > 100 | > 100 | > 100 | > 100 | 80.9 | > 100 | 66.5 | 86.7 | 96.4 | 95.8 | > 100 | 42.2 | 36.1 | > 100 | > 100 | 79.6
CC(=O)O/C(=C1\C[C@H]2[C@@H]3CC=C4C[C@@H](OC(C)=O)CC[C@]4(C)[C@H]3CC[C@]2(C)C1=O)C(F)(F)F | 20.6 | 36.8 | 34.7 | 24.3 | 25.7 | 25.2 | 17.6 | 29.2 | 5.17 | 17.8 | 16.4 | 14.9 | 7.37 | 46.6 | 58.6 | 15.2 | 17.2 | 14.4 | 10.9 | 32.4
CN(C)c1ccc(/C=N\NC(=O)Nc2cccc3ccccc23)cc1 | 51.5 | > 100 | 72.4 | 27.9 | > 100 | 30.9 | 7.23 | > 100 | 22.1 | 33 | 48.3 | 12 | > 100 | 78.8 | > 100 | 21.5 | 35.7 | 18.6 | > 100 | 36.7
CC(=O)O[C@H]1CCC2[C@@H]3CCC4Nc5oncc5C[C@]4(C)C3CC[C@@]21C (stereo not given in full) | > 10 | > 10 | > 10 | > 10 | > 10 | > 10 | > 10 | > 10 | > 10 | > 10 | > 10 | > 10 | > 10 | > 10 | > 10 | 9.84 | > 10 | > 10 | > 10 | > 10
O=C(Nc1nncs1)NS(=O)(=O)n1c(=S)sc2ccccc21 | > 100 | > 100 | > 100 | > 100 | > 100 | > 100 | > 100 | > 100 | > 100 | > 100 | > 100 | > 100 | > 100 | > 100 | > 100 | > 100 | > 100 | > 100 | > 100 | > 100
